# Assay: Cytotoxicity against mouse NS1 cells
# Type: functional
row,Structure (SMILES),LD99 [µM]
1,C[C@@H]1CC(=O)C2=C(O1)c1cc(O)c(O)cc1OC2,0.05
2,Cc1cc(=O)c2c(o1)-c1cc(O)c(O)cc1OC2 [CITROMYCIN],0.1
3,CS[C@@H]1C(=O)N(C)[C@](Cc2ccc(OCC=C(C)C)cc2)(SC)C(=O)N1C (relative stereo),0.15
